In patent US8486990B2, “SirT inhibitors that bind to NAD” (Elixir Pharmaceuticals, Inc., priority 2003, dated 2013):
Entries after “also recorded” stand apart in the source; their conditions may differ.

Legend:
Type in all cases: cell-based
[1] = tested on: acetylated p53 (at lysine 382) in NCI-H460 cells; assay: p53 acetylation (lysine 382) in etoposide-treated NCI-H460 cells, Western blot; conditions: for acetylation of p53 (lysine 382) by enantiomers: 6 hours, 20 micromolar etoposide, immunoprecipitation of p53
[2] = target: T1, yeast sir2 (Saccharomyces cerevisiae, UniProt P06700); assay: yeast silencing assay (strain SL8c, URA at the telomere, 5FOA growth); conditions: SD+0.1% 5FOA, 30° C., 18-24 hrs
T1 construct: endogenous in cells; host or cells: yeast strain SL8c (URA at the telomere)
T1 sequence (P06700 whole entry): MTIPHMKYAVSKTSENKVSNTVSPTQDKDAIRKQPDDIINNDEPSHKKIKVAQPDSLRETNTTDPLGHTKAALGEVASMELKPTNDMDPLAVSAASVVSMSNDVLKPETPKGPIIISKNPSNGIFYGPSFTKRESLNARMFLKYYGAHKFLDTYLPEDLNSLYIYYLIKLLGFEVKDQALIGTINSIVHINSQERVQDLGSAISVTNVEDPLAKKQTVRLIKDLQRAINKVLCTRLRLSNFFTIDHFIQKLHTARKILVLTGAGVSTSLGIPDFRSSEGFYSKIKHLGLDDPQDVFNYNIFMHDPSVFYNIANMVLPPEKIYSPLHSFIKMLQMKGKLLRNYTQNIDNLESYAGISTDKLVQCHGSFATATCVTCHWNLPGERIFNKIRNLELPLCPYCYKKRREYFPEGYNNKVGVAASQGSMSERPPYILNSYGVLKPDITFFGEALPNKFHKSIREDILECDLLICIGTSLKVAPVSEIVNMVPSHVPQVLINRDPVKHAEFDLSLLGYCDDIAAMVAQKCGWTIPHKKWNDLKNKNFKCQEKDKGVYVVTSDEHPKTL
Method: Strain SL8c (URA at the telomere) was used for yeast based assay to screen compounds. Cells were grown in -URA media to select de-silenced cells. The next day cells were diluted 1:20 into fresh YPD with 2% glucose then grow for 5 hrs. Cells were then diluted OD=0.01 in both SD and SD+0.1% 5FOA media. The compounds were then serially diluted into 10 ul of SD or SD+0.1% 5FOA medium. 140 ul of cells were pipetted into a 96 well plate and grown at 30° C. for 18-24 hrs.

[3] = tested on: HeLa cell; assay: HeLa apoptosis assay (Cell Death Detection ELISA plus kit)
Method: The following exemplary compounds were evaluated for their effect on a HeLa cell apoptosis assay using the Cell Death Detection ELISA plus kit from Roche Applied Science.

[4] = tested on: acetylated lysine 382 of p53 in U20S cells; assay: p53 acetylation (lysine 382) in etoposide-treated U20S cells; conditions: 20 micromolar etoposide, 6 hours
[5] = tested on: acetylated lysine 382 of p53 in MCF7 cells; assay: p53 acetylation (lysine 382) in etoposide-treated MCF7 cells; conditions: MCF7, 20 micromolar etoposide, 6 hours
[6] = tested on: NCI-H460 cells; assay: cell survival after DNA damage with etoposide; conditions: NCI-H460, varying concentrations of etoposide
Text: NCI-H460 cells were damaged with varying concentrations of etoposide in the presence or absence of SIRT1 inhibitors.

[7] = tested on: NCI-H460 cells; assay: thymidine incorporation with etoposide and compound (cytostar plates); conditions: NCI-H460, 1 micromolar compound, added concurrent to, prior to, and after etoposide
Method: Thymidine incorporation was measured at 24 hours intervals.

[8] = tested on: p27 in HEK293 cells; assay: p27 protein immunoblot in serum starved HEK293 cells; conditions: HEK293, serum starved 24 hrs
[9] = target: T2, GFP-hSIRT2 isoform 1 (Homo sapiens, UniProt Q8IXJ6); assay: acetylated tubulin staining in HeLa cells transfected with GFP-hSIRT2; conditions: 1 μM TSA, 50 μM compound
T2 sequence (Q8IXJ6 1-389): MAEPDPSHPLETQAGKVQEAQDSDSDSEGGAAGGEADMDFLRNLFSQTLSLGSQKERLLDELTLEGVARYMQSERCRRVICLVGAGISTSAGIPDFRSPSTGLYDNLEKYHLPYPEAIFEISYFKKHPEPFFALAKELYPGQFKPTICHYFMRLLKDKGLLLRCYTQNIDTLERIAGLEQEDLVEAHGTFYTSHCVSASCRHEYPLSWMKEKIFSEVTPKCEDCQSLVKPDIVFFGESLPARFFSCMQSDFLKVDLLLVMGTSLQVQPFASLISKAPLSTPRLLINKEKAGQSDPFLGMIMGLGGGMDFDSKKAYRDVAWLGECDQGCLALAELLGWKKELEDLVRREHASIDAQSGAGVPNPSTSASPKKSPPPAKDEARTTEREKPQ
Text: HeLa cells were transfected with GFP-hSIRT2 isoform 1 (green). […] The next morning cells were fixed, permeabilized, and stained for acetylated tubulin (red).

NC(=O)C1CCCc2c1[nH]c1ccc(Cl)cc21 (single isomer, unassigned) [8(+), 6-Chloro-2,3,4,9-tetrahydro-1H-carbazole-1-carboxylic acid amide]
acetylation of p53 (lysine 382) by enantiomers [1]: does not lead to increased acetylation of p53 | effect on yeast cell growth / silencing [2]: no effect on cell growth

NC(=O)C1CCCc2c1[nH]c1ccccc21 (centres unmarked) [Compound 5, 2,3,4,9-Tetrahydro-1H-carbazole-1-carboxylic acid amide]
average (HeLa apoptosis, Cell Death Detection ELISA) ([3]; dose 0.5 (unit not given)): 1.00 | average (HeLa apoptosis, Cell Death Detection ELISA) ([3]; dose 2.5 (unit not given)): 0.97 | average (HeLa apoptosis, Cell Death Detection ELISA) ([3]; dose 10 (unit not given)): 1.07 | average (HeLa apoptosis, Cell Death Detection ELISA) ([3]; dose 25 (unit not given)): 0.91

Oc1ccc(/C=C/c2cc(O)cc(O)c2)cc1 [Resveratol, reference compound]
average (HeLa apoptosis, Cell Death Detection ELISA) ([3]; dose 0.5 (unit not given)): 0.83 | average (HeLa apoptosis, Cell Death Detection ELISA) ([3]; dose 2.5 (unit not given)): 0.84 | average (HeLa apoptosis, Cell Death Detection ELISA) ([3]; dose 10 (unit not given)): 1.01 | average (HeLa apoptosis, Cell Death Detection ELISA) ([3]; dose 25 (unit not given)): 0.56

NC(=O)C1CCCc2c1[nH]c1ccc(Cl)cc21 (single isomer, unassigned) [8(−), 6-Chloro-2,3,4,9-tetrahydro-1H-carbazole-1-carboxylic acid amide]
acetylation of p53 (lysine 382) by enantiomers [1]: significant increase in acetylation and stabilization of p53 protein | effect on yeast cell growth / silencing [2]: preferentially inhibits yeast sir2 relative to enantiomer 8(+); also recorded: inhibits SIRT1 and allows for expression of URA3 which blocks growth in the presence of 5-fluorouracil

NC(=O)C1CCCc2c1[nH]c1ccc(Cl)cc21 (centres unmarked) [Compound 8, 6-Chloro-2,3,4,9-tetrahydro-1H-carbazole-1-carboxylic acid amide]
average (HeLa apoptosis, Cell Death Detection ELISA) ([3]; dose 0.5 (unit not given)): 1.23 | average (HeLa apoptosis, Cell Death Detection ELISA) ([3]; dose 2.5 (unit not given)): 1.85 | average (HeLa apoptosis, Cell Death Detection ELISA) ([3]; dose 10 (unit not given)): 2.11 | average (HeLa apoptosis, Cell Death Detection ELISA) ([3]; dose 25 (unit not given)): 2.27 | p53 acetylation (at lysine 382) after etoposide treatment ([1]; 20 uM etoposide, 1 uM and 10 uM equally effective, relative to DMSO): increase p53 acetylation significantly relative to DMSO alone | inhibition of SIRT1 / P53 acetylation [4]: competent to inhibit SIRT1 in a variety of cell lines with similar effects on P53 acetylation | inhibition of SIRT1 / P53 acetylation [5]: competent to inhibit SIRT1 in a variety of cell lines with similar effects on P53 acetylation | p53 function measured as cell survival after DNA damage [6]: did not modulate p53 function significantly | synergy with etoposide on growth characteristics (thymidine incorporation) [7]: no synergy between etoposide and compound 8 | serum starvation-mediated upregulation of p27 [8]: abrogation of serum starvation-mediated upregulation of the cell cycle inhibitor p27 | tubulin acetylation in cells expressing SIRT2 [9]: the tubulin is more highly acetylated indicating that the effect of SIRT2 was blocked
